In patent US20260258084A1, “New Peptides as Selective IL-23 Receptor Antagonists” (Sanofi, priority 2022, published 2026):
Values after ≈ are worked out from the molar mass of the structure shown. Like-named read-outs stand apart in the source and are kept apart here. Starred links: 1 amine or outer side, 2 acyl side, 3 side chain; linkers in the order of their positions; H or OH if unused. Positions of bridges follow the written chain, without caps; N, C: chain ends. Non-standard residues stand in square brackets, D forms with d. Residues, ends and D or L forms follow the SMILES beside them. *: point of attachment. X3 = CN(CCCCC(=O)N[C@@H](CS[*:2])C(=O)[*:1])[*:3]; 2Nal = N[C@@H](Cc1ccc2ccccc2c1)C(=O)O; AEF = NCCOc1ccc(C[C@H](N)C(=O)O)cc1; αMeL = CC(C)C[C@](C)(N)C(=O)O; Thp = NC1(C(=O)O)CCOCC1; Me2NCH2CH2 = CN(C)CC*; Aib = CC(C)(N)C(=O)O; Ahx = NCCCCCC(=O)O; Ava = NCCCCC(=O)O

Tests used:
[1] = target: T1, human interleukin-23 receptor (recombinant human IL-23R-Fc chimera) (Homo sapiens, UniProt Q5VWK5); test: Human ELISA IL23/IL23R (assay for specific human IL23R antagonists); assay type: binding; conditions: Table 10; read-out: Human ELISA IL23/IL23R IC50
T1 construct: Fc (IgG Fc fusion)
Method in brief: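 Competition format: peptide dilutions compete for IL23R-Fc chimera (0.1 μg/ml final, 60 min, room temperature) binding to immobilized human IL23 coated at […] overnight at 4 °C. Read-out is fluorogenic HRP signal from goat anti-hu-IgG1 detecting captured receptor.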

[2] = Solubility testing of peptides at different pH; assay type: physicochemical; conditions: target concentration 1 mg/ml, 2 hours agitation
Method in brief: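 Four buffers were used: 50 mM HCl pH 1.2 and 50 mM phosphate at pH 6.5, 7.4 and 9.0, each receiving dried-down compound at a 1 mg/mL target. After 2 h gentle shaking and 0.45 μm filtration, UV peak areas were compared with a DMSO standard curve of known concentration, allowing for extinction coefficients.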

[3] = Chemical stability assessment of peptides (relative purity loss); assay type: physicochemical; conditions: 24 hours at 37° C.; for Chemical stability (relative purity loss) Buffer pH 1.2: 50 mM HCl pH 1.2 + acetonitrile (1:1); for Chemical stability (relative purity loss) Buffer pH 6.5: 50 mM phosphate buffer pH 6.5 + acetonitrile (1:1); for Chemical stability (relative purity loss) Buffer pH 7.4: 50 mM phosphate buffer pH 7.4 + acetonitrile (1:1)
Method in brief: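 Peptide solutions at 1 mg/ml (purity-corrected) in 1:1 acetonitrile with 50 mM HCl pH 1.2, or 50 mM phosphate pH 6.5 or pH 7.4, held 24 hours at 2° C. and 37° C. Supernatants analysed by UHPLC-UV; relative purity loss taken as percent drop in peak-area purity from 0 to 24 hours at 37° C.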

[4] = tested on: T2, Pepsin; test: Protease stability in simulated gastric fluid (Pepsin-SGF, FaSSGF); assay type: in vitro ADME; conditions: simulated gastric fluid with pepsin (Pepsin-SGF), 60 min, 1 μM peptide, 37° C., read-out: FaSSGF 60 (min), remaining percent of peptide
T2 construct: purchased Merck Millipore
Method in brief: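 LCMS/MS peak areas, normalised to the time-0 sample as 100%, give percent remaining. Conditions: 37° C incubation of 1 μM final peptide in simulated gastric fluid with pepsin; ethanol/0.1% HCOOH quench at 0, 60, 120, 240 min.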

[5] = tested on: Pancreatin; test: Protease stability in simulated intestinal fluid (Pancreatin-SIF, FaSSIF); assay type: in vitro ADME; conditions: 1 μM peptide, 37° C.; for remaining at 1 h, 1 µM: 60 min, read-out: FaSSIF 60 (min), remaining percent of peptide; for remaining at 2 h, 1 µM: 120 min, read-out: FaSSIF 120 (min), remaining percent of peptide; for remaining at 4 h, 1 µM: 240 min, read-out: FaSSIF 240 (min), remaining percent of peptide
Method in brief: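 LC-MS/MS peak areas at 0, 60, 120 and 240 min, normalised to time 0 as 100%, give percent remaining. Reactions used 1 μM final peptide at 37° C in pancreatin-SIF (1 mg pancreatin in 10 mL SIF concentrate) and were stopped with ethanol containing 0.1% HCOOH.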

[6] = 50 mM HCl buffer, 50 mM HCl pH 1.2, read-out: Solubility Buffer pH 1.2
[7] = 50 mM phosphate buffer pH 6.5, read-out: Solubility Buffer pH 6.5
[8] = 50 mM phosphate buffer pH 7.4, read-out: Solubility Buffer pH 7.4
[9] = 50 mM phosphate buffer pH 9.0, read-out: Solubility Buffer pH 9.0

| SMILES | IC50 [1] | solubility at 2 h [2, 6] | solubility at 2 h [2, 7] | solubility at 2 h [2, 8] | solubility at 2 h [2, 9] | Chemical stability (relative purity loss) Buffer pH 1.2 [3] | Chemical stability (relative purity loss) Buffer pH 6.5 [3] | Chemical stability (relative purity loss) Buffer pH 7.4 [3] | remaining at 1 h, 1 µM [4] | remaining at 1 h, 1 µM [5] | remaining at 2 h, 1 µM [5] | remaining at 4 h, 1 µM [5] |
| --- | --- | --- | --- | --- | --- | --- | --- | --- | --- | --- | --- | --- |
| COc1ccc(C[C@@H]2NC(=O)[C@@H]3CSSC[C@H](NC(=O)CCCCNC(=O)CC[C@@H](C(=O)N[C@@H](CC(N)=O)C(=O)NCC(N)=O)NC(=O)C(C)(C)NC(=O)[C@H](Cc4ccc5ccccc5c4)NC2=O)C(=O)N[C@@H](CC(N)=O)C(=O)N[C@@H]([C@@H](C)O)C(=O)N[C@@H](Cc2c[nH]c4ccccc24)C(=O)N[C@@H](CCC(N)=O)C(=O)N3)cc1 [compound 4] ([Ava]CNTWQCY(Me)[2Nal][Aib]ENG-NH2; disulfide 2-7; lactam N-11) | 950 pM | 30 µg/mL (≈ 18.8 µM) | 20 µg/mL (≈ 12.6 µM) | 20 µg/mL (≈ 12.6 µM) | 10 µg/mL (≈ 6.28 µM) | 22.4% | 0.7% | 7.0% | 1% | 91% | 82% | 73% |
| C[C@@H](O)[C@@H]1NC(=O)[C@H](CC(N)=O)NC(=O)[C@@H]2CSSC[C@H](NC(=O)[C@H](CCC(N)=O)NC(=O)[C@H](Cc3c[nH]c4ccccc34)NC1=O)C(=O)N[C@@H](Cc1ccc(OCCN)cc1)C(=O)N[C@@H](Cc1ccc3ccccc3c1)C(=O)NC(C)(C)C(=O)N[C@H](C(=O)N[C@@H](CC(N)=O)C(=O)NCC(N)=O)CC(=O)NCCCCCC(=O)N2 [compound 9] ([Ahx]CNTWQC[AEF][2Nal][Aib]DNG-NH2; disulfide 2-7; lactam N-11) | 440 pM | ≥ 1040 µg/mL | ≥ 1060 µg/mL | ≥ 960 µg/mL | 750 µg/mL (≈ 463 µM) | 13.8% | 5.5% | 19.8% | 2% | 102% | 100% | 85% |
| CC(C)C[C@@H](NC(=O)[C@H](CC(N)=O)NC(=O)[C@@H]1CCC(=O)NCCCCC(=O)N[C@H]2CSSC[C@H](NC(=O)[C@H](CCC(N)=O)NC(=O)[C@H](Cc3c[nH]c4ccccc34)NC(=O)[C@H]([C@@H](C)O)NC(=O)[C@H](CC(N)=O)NC2=O)C(=O)N[C@@H](Cc2ccc(OCCN(C)C)cc2)C(=O)N[C@@H](Cc2ccc3ccccc3c2)C(=O)N[C@@](C)(CC(C)C)C(=O)N1)C(N)=O [compound 10] ([Ava]CNTWQCY(Me2NCH2CH2)[2Nal][αMeL]EN[dL]-NH2; disulfide 2-7; lactam N-11) | 580 pM | < 10 µg/mL | 70 µg/mL (≈ 40.1 µM) | 10 µg/mL (≈ 5.72 µM) | < 10 µg/mL | 6.7% | 0.1% | 0.4% | 77% | 84% | 81% | 80% |
| COc1ccc(C[C@@H]2NC(=O)[C@@H]3CSSC[C@H](NC(=O)CCC(=O)NCCCC[C@@H](C(=O)N[C@@H](CC(N)=O)C(=O)N[C@@H](CC(N)=O)C(N)=O)NC(=O)C(C)(C)NC(=O)[C@H](Cc4ccc5ccccc5c4)NC2=O)C(=O)N[C@@H](CC(N)=O)C(=O)N[C@@H]([C@@H](C)O)C(=O)N[C@@H](Cc2c[nH]c4ccccc24)C(=O)N[C@@H](CCC(N)=O)C(=O)N3)cc1 [compound 11] | 700 pM | 120 µg/mL (≈ 72.8 µM) | 100 µg/mL (≈ 60.6 µM) | 90 µg/mL (≈ 54.6 µM) | 80 µg/mL (≈ 48.5 µM) | 25.7% | 0.2% | 1.0% | 2% | 80% | 76% | 65% |
| CC(=O)N[C@H]1CCCCNC(=O)[C@@H]2CSSC[C@H](NC(=O)[C@H](CCC(N)=O)NC(=O)[C@H](Cc3c[nH]c4ccccc34)NC1=O)C(=O)N[C@@H](Cc1ccc(OCCN)cc1)C(=O)N[C@@H](Cc1ccc3ccccc3c1)C(=O)NC(C)(C)C(=O)N[C@H](C(=O)N[C@@H](CC(N)=O)C(=O)N[C@@H](CC(N)=O)C(N)=O)CCC(=O)N(C)CCCCC(=O)N2 [compound 12] (Ac-KWQC[AEF][2Nal][Aib]ENN-NH2; linker 1-4-8 via X3) | 590 pM | 310 µg/mL (≈ 188 µM) | 290 µg/mL (≈ 176 µM) | 190 µg/mL (≈ 115 µM) | 110 µg/mL (≈ 66.8 µM) | 24.5% | 1.1% | 3.6% | 53% | 74% | 59% | 41% |
| CC(=O)N[C@H]1CCCCNC(=O)[C@@H]2CSSC[C@H](NC(=O)[C@H](CCC(N)=O)NC(=O)[C@H](Cc3c[nH]c4ccccc34)NC1=O)C(=O)N[C@@H](Cc1ccc(OCCN)cc1)C(=O)N[C@@H](Cc1ccc3ccccc3c1)C(=O)NC1(CCOCC1)C(=O)N[C@H](C(=O)N[C@@H](CC(N)=O)C(=O)N[C@@H](CC(N)=O)C(N)=O)CCC(=O)N(C)CCCCC(=O)N2 [compound 13] (Ac-KWQC[AEF][2Nal][Thp]ENN-NH2; linker 1-4-8 via X3) | 610 pM | ≥ 1050 µg/mL | ≥ 1070 µg/mL | 770 µg/mL (≈ 456 µM) | ≥ 990 µg/mL | 23.3% | 0.2% | 1.6% | 73% | 83% | 70% | 54% |
| CC(=O)N[C@H]1CCCCNC(=O)[C@@H]2CSSC[C@H](NC(=O)[C@H](CCC(N)=O)NC(=O)[C@H](Cc3c[nH]c4ccccc34)NC1=O)C(=O)N[C@@H](Cc1ccc(OCCN)cc1)C(=O)N[C@@H](Cc1ccc3ccccc3c1)C(=O)N[C@@](C)(CC(C)C)C(=O)N[C@H](C(=O)N[C@@H](CC(N)=O)C(=O)N[C@@H](CC(N)=O)C(N)=O)CCC(=O)N(C)CCCCC(=O)N2 [compound 14] (Ac-KWQC[AEF][2Nal][αMeL]ENN-NH2; linker 1-4-8 via X3) | 360 pM | 50 µg/mL (≈ 29.6 µM) | 30 µg/mL (≈ 17.8 µM) | 20 µg/mL (≈ 11.8 µM) | < 10 µg/mL | 25.8% | 0.6% | 0.1% | 72% | 83% | 68% | 49% |
